Calls of active or inactive are those of the source. The rule behind the calls is not given here.
Columns and labels:
SW480 [1] = test: Induction of apoptosis in human SW480 cells assessed as late apoptotic cells at 2 uM incubated for 48 hrs by Annexin V-FITC/PI staining based flow cytometry (reference value: 4.67%); type: functional
SW480 [2] = test: Induction of apoptosis in human SW480 cells assessed as early apoptotic cells at 4 uM incubated for 48 hrs by Annexin V-FITC/PI staining based flow cytometry (reference value: 1.87%); type: functional
SW480 [3] = test: Induction of apoptosis in human SW480 cells assessed as late apoptotic cells at 4 uM incubated for 48 hrs by Annexin V-FITC/PI staining based flow cytometry (reference value: 4.67%); type: functional
SW480 [4] = test: Induction of apoptosis in human SW480 cells assessed as necrotic cells at 4 uM incubated for 48 hrs by Annexin V-FITC/PI staining based flow cytometry (reference value: 2.9%); type: functional
SW480 [5] = test: Induction of apoptosis in human SW480 cells assessed as early apoptotic cells at 8 uM incubated for 48 hrs by Annexin V-FITC/PI staining based flow cytometry (reference value: 1.87%); type: functional
SW480 [6] = test: Induction of apoptosis in human SW480 cells assessed as viable cells at 16 uM incubated for 48 hrs by Annexin V-FITC/PI staining based flow cytometry (reference value: 90.56%); type: functional; conditions: read-out: Activity
SW480 [7] = test: Induction of apoptosis in human SW480 cells assessed as viable cells at 32 uM incubated for 48 hrs by Annexin V-FITC/PI staining based flow cytometry (reference value: 90.56%); type: functional; conditions: read-out: Activity
SW480 [8] = test: Induction of apoptosis in human SW480 cells assessed as early apoptotic cells at 32 uM incubated for 48 hrs by Annexin V-FITC/PI staining based flow cytometry (reference value: 1.87%); type: functional
HCT-116 [9] = test: Induction of apoptosis in human HCT-116 cells at 32 uM incubated for 48 hrs by Annexin V-FITC/PI staining based flow cytometry (reference value: 12%); type: functional
HCT-116 [10] = test: Induction of apoptosis in human HCT-116 cells incubated for 48 hrs by Annexin V-FITC/PI staining based flow cytometry; type: functional, cell-based; conditions: dose 2-32 µM
SW480 [11] = test: Induction of apoptosis in human SW480 cells assessed as increase in Bax protein expression at 2 to 16 uM incubated for 48 hrs by western blot analysis; type: functional, cell-based; conditions: dose 2-16 µM
SW480 [12] = test: Induction of apoptosis in human SW480 cells assessed as increase in p53 protein expression at 2 to 16 uM incubated for 48 hrs by western blot analysis; type: functional, cell-based; conditions: dose 2-16 µM
SW480 [13] = test: Induction of apoptosis in human SW480 cells assessed as reduction in Bcl-xl protein expression at 2 to 16 uM incubated for 48 hrs by western blot analysis; type: functional, cell-based; conditions: dose 2-16 µM
SW480 [14] = test: Induction of mitochondrial membrane potential loss in human SW480 cells assessed as cells with low MMP emitting green fluorescence at 2 uM incubated for 24 hrs by JC-1 staining based flow cytometry (reference value: 17.96%); type: functional
HCT-116 [15] = test: Inhibition of colony formation in human HCT-116 cells at 2 to 8 uM incubated for 48 hrs followed by culture medium replenishment for every 72 hrs and measured after 14 days by crystal violet staining based analysis; type: functional, cell-based; conditions: dose 2-8 µM, time 14.0 day
SW480 [16] = test: Inhibition of colony formation in human SW480 cells at 2 to 8 uM incubated for 48 hrs followed by culture medium replenishment for every 72 hrs and measured after 14 days by crystal violet staining based analysis; type: functional, cell-based; conditions: dose 2-8 µM, time 14.0 day
[17] = Half life in mouse liver microsomes at 0.1 uM preincubated for 10 mins followed by NADPH addition and measured up to 60 mins by LC-MS/MS analysis; type: ADME, Microsome; conditions: time 70 min
[18] = Acute toxicity in BALB/c mouse assessed as animal survival at 250 mg/kg, ip administered per 4 hrs for 4 times and measured everyday for 14 days (reference value: 100%); type: organism-based; conditions: in vivo, time 14 day
[19] = Acute toxicity in BALB/c mouse assessed as animal survival at 200 mg/kg, ip administered per 4 hrs for 4 times and measured everyday for 14 days (Rb =100%); type: organism-based; conditions: in vivo, time 14 day
[20] = Acute toxicity in ip dosed BALB/c mouse administered per 4 hrs for 4 times and measured everyday for 14 days; type: organism-based; conditions: in vivo, time 14 day
[21] = Toxicity in BALB/c mouse xenografted with human SW480 cells assessed as decrease in body weight at 25 to 50 mg/kg, ip administered every 2 days for 12 days; type: organism-based; conditions: in vivo, 288 h, dose 25-50 mg/kg, time 12 day

Compound `CCCCCCCCCC(CCO)n1cnc2c(Cl)ncnc21` (racemic) has an Activity (SW480 [1]) of 11.69%, an Activity (SW480 [2]) of 11.67% and an Activity (SW480 [3]) of 9.11%. It also gave an Activity (SW480 [4]) of 7.76%, an Activity (SW480 [5]) of 11.03% and a viability at 16 µM (SW480 [6]) of 44%. The viability at 32 µM (SW480 [7]) was 26.8%, the Activity (SW480 [8]) was 55.55% and the Activity (HCT-116 [9]) was 66%. For the same compound, the Activity (HCT-116 [10]) was “Dose-Dependent Effect”, the Activity (SW480 [11]) was “Active” and the Activity (SW480 [12]) was “Active”. For the same compound, the Activity (SW480 [13]) was “Active”, the Activity (SW480 [14]) was 28.88% and the inhibition (HCT-116 [15]) was “Active”. The inhibition (SW480 [16]) was “Active”, the half-life at 0.1 µM [17] was 1 min and the survival at 336 h [18] was 20%. For the same compound, the survival at 336 h [19] was 70%, the LD50 at 336 h [20] was 220 mg/kg and the Activity [21] was “Non-Toxic”.

Reference: ChEMBL document CHEMBL4811228, “Design, Synthesis, and Activity Evaluation of Novel Acyclic Nucleosides as Potential Anticancer Agents In Vitro and In Vivo” (J Med Chem, 2021)
